{"source": "patent US20100160454A1", "about": "“ANTIMICROBIAL AGENTS, COMPOSITIONS AND PRODUCTS CONTAINING THE SAME, AND METHODS OF USING THE COMPOSITIONS AND PRODUCTS” (Eastman Chemical Company, priority 2008, published 2010)", "experiment_in_all_cases": "Microbiological challenge testing in BPW broth, graded subculture counts", "assay_type_in_all_cases": "cell-based", "key": {"[1]": {"system": "Aspergillus niger Wild type", "conditions": "A. niger", "protocol": "The microorganisms in the table below were used in challenge tests. They were either ATCC (American Type Culture Collection) or “wild type” as indicated. Wild type organisms were problematic organisms previously isolated from chemical products.\nAll of the microorganisms were grown in Tryptose Soy Broth (TSB), DIFCO™ available from Becton, Dickinson and Company, containing 1% dextrose. Candida albicans and Aspergillus niger, were incubated at 22° C.+/−2° C. for at least 96 hours. All bacteria were incubated at 35° C.+/−2° C. in a humidified incubator for at least 96 hours.\nCandida albicans and Aspergillus niger were also grown on Sabouraud Dextrose Agar (SABD) at 22° C. for 7 to 14 days or until full sporulation was achieved.\nThe following procedure was followed to determine the amount of each challenge material (inoculum broth) needed to produce a 10^8 CFU/mL challenge, which is equivalent to a final test-sample microbial concentration of 10^5 to 10^6 CFU/mL (CFU=colony forming units).\nUsing a sterile pipette, 1 mL of the growth from each TSB culture was transferred into tubes of 9 mL buffered water (pH 7.2 phosphate buffer) and mixed thoroughly. This was repeated to make serial 1:10 dilutions. Then, 0.1 mL of each sample and dilution was inoculated onto agar plates to produce the equivalent of a further 1:10 dilution. (C. albicans and A. niger were inoculated onto SABD and bacteria were inoculated onto Plate Count Agar (PCA), DIFCO™ available from Becton, Dickinson and Company.) (The normal volume plated for most samples was 0.1 mL. Some samples that could be very low in micro-organisms (high dilutions) were plated using 0.5 mL of inoculum, in order to produce reproducible counts.) The samples were distributed on the plates using the spread-plate technique. The spread-plate technique is carried out by spreading the sample over the entire plate surface using a sterile spreading rod while rotating the plate with a rotary auto-plater. After the inoculum was absorbed completely by the agar, each plate was inverted and incubated (fungi at 22° C.+/−2° C. and bacteria at 35° C.+/−2° C.).\nAfter incubation for at least 48 hours, colonies that had developed on the agar plates were counted (CFU) and recorded with the corresponding dilution. If counting had to be delayed temporarily, plates were refrigerated, preferably no more than 24 hours, until they could be counted. The number of CFU/mL was determined by multiplying the plate count by the dilution factor of the plate counted.\nTurbidity in Nepholemetric Turbidity Units (NTU) was measured for each serial dilution using the HF-Micro 100 Model Turbidimeter. For each microorganism, the plate counts were compared to the turbidity readings.\nAspergillus niger cultures were harvested and spores dislodged from the SABD on which they were grown by rubbing the growth gently with a sterile inoculating loop. The spores were then mixed into the broth culture that had been incubated with a sterile magnetic stir bar to reduce pellicle formation. The spore-culture mixture was filtered repeatedly through sterile, nonabsorbent cotton and harvested repeatedly, adjusting vegetative cells and spores to a level of 1.0×10^8. A hemocytometer was used to verify the final challenge concentration.\nControl substrates (“broth alone”) were prepared for each microorganism separately in triplicate by adding 13.5 mL of Buffered Peptone Water broth (BPW) containing 1% dextrose to each 20-mL glass tube, then adding 1.5 mL challenge material to produce a final concentration at time zero of 10^5 to 10^6 CFU/mL and a total volume of 15 mL."}, "[2]": {"system": "Bacillus subtilis Wild type", "summary_of_the_method": "(§1)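 TSB + 1% dextrose cultures, 35 ± 2 °C, ≥96 h. Inoculum calibrated by NTU vs plate counts; challenge at 10^5–10^6 CFU/mL final in BPW/1% dextrose with test material. Triplicates (butoxyethanol in duplicate). Spread plates on PCA, ≥48 h, CFU/mL = count × dilution.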"}, "[3]": {"system": "Proteus vulgaris Wild type", "summary_of_the_method": "as §1"}}}
{"smiles": "CCCCOCCO", "note": "[EB, 2-butoxyethanol]", "values": [{"measurement": "Grade", "setting": "[1]; 2.5% (wt/vol), 3 day", "result": 4}, {"measurement": "Grade", "setting": "[1]; 2.5% (wt/vol), 13 day", "result": 4}, {"measurement": "Grade", "setting": "[1]; 2.5% (wt/vol), 30 day", "result": 4}, {"measurement": "Grade", "setting": "[1]; 5.0% (wt/vol), 3 day", "result": 2.5}, {"measurement": "Grade", "setting": "[1]; 5.0% (wt/vol), 13 day", "result": 0}, {"measurement": "Grade", "setting": "[1]; 5.0% (wt/vol), 30 day", "result": 0}, {"measurement": "B. subtillis growth grade, 3 day", "setting": "[2]; 2.5% weight/volume", "result": "4 (1000 to 10,000 colonies countable (thus 10,000 CFU/mL to 100,000 CFU/mL))"}, {"measurement": "B. subtillis growth grade, 14 day", "setting": "[2]; 2.5% weight/volume", "result": "4 (1000 to 10,000 colonies countable (thus 10,000 CFU/mL to 100,000 CFU/mL))"}, {"measurement": "B. subtillis growth grade, 30 day", "setting": "[2]; 2.5% weight/volume", "result": "4 (1000 to 10,000 colonies countable (thus 10,000 CFU/mL to 100,000 CFU/mL))"}, {"measurement": "B. subtillis growth grade, 3 day", "setting": "[2]; 5.0% weight/volume", "result": "1 (0 to 51 colonies counted (thus 10 to 510 CFU/mL based on 0.1-mL sample))"}, {"measurement": "B. subtillis growth grade, 14 day", "setting": "[2]; 5.0% weight/volume", "result": 0}, {"measurement": "B. subtillis growth grade, 30 day", "setting": "[2]; 5.0% weight/volume", "result": 0}, {"measurement": "P. vulgaris growth grade, 3 day", "setting": "[3]; 2.5% weight/volume", "result": "4 (1000 to 10,000 colonies countable (thus 10,000 CFU/mL to 100,000 CFU/mL))"}, {"measurement": "P. vulgaris growth grade, 13 day", "setting": "[3]; 2.5% weight/volume", "result": "4 (1000 to 10,000 colonies countable (thus 10,000 CFU/mL to 100,000 CFU/mL))"}, {"measurement": "P. vulgaris growth grade, 30 day", "setting": "[3]; 2.5% weight/volume", "result": "4 (1000 to 10,000 colonies countable (thus 10,000 CFU/mL to 100,000 CFU/mL))"}, {"measurement": "P. vulgaris growth grade, 3 day", "setting": "[3]; 5.0% weight/volume", "result": 0}, {"measurement": "P. vulgaris growth grade, 13 day", "setting": "[3]; 5.0% weight/volume", "result": 0}, {"measurement": "P. vulgaris growth grade, 30 day", "setting": "[3]; 5.0% weight/volume", "result": 0}]}
